# Columns and labels:
# Apo E^−/− mice = experiment: Apo E−/− mice on western diet given RvD5n-3 DPA: blood leukocyte and platelet activation by flow cytometry; assay type: in vivo; details: 100 ng/mouse i.v., alternate days, 2 weeks; vs vehicle
# Experimental: Mice (male and female) were fed a western diet for 6 weeks from 4 weeks of age and kept of a 12 h light dark cycle. At 8 weeks of age, mice were given RvD5n-3 DPA (100 ng/mouse; i.v.) or vehicle on alternate days for a 2-week period. Mice were culled, aortic arches were collected and stained using oil-red O as in Khambata R S et al. Anti-inflammatory actions of inorganic nitrate stabilize the atherosclerotic plaque. Proc Natt Acad Sci USA. 2017; 114(4):E550-E559, the contents of which are incorporated herein by reference. Staining intensity was determined using image processing software and expressed as relative units per mm^2. The descending aorta was collected, placed in ice-cold methanol and lipid mediators identified and quantified as described above.
# In separate experiments blood was collected from Apo E^−/− mice using heparin-lined syringes via cardiac puncture. Cells were incubated with Fc-blocking IgG and anti-mouse CD11b-PE-Texas Red, CD62P-Brilliant Violet650™, CD115-Brilliant Violet 711™, and CD41-Brilliant Violet 510™ (Biolegend). for 45 minutes on ice. Red blood cells were lysed and fixed using Whole Blood Lysing Reagent Kit. Staining was then evaluated using a flow cytometer and analysis was conducted using appropriate software.
# [1] = system: peripheral blood leukocytes and platelets from CVD patients; experiment: CVD patient whole blood incubated with RvD2n-3 DPA or RvD5n-3 DPA then PAF, flow cytometry; assay type: cell-based, human; details: 15 min then PAF 30 min
# Experimental: (§1) Whole blood was incubated with RvD2n-3 DPA or RvD5n-3 DPA (0.1 nM, 1 nM or 10 nM) or vehicle (PBS containing 0.01% EtOH) for 15 min then with PAF (100 ng/ml) for 30 min (37° C.). Expression of CD62P on (A) neutrophils (B) monocytes and CD11b on (C) neutrophils and (D) monocytes was investigated using flow cytometry and fluorescently labelled antibodies. Results are mean±s.em. and expressed as percentage of PAF incubated cells. n=9 patients per interval. * p<0.05 vs Veh group using one-sample t test, followed by Sidak correction of p values.
# as §1, with “labeled” for “labelled”, “group.” for “interval.”, “PAF” for “Veh”, “Wilcoxon Signed Rank Test.” for “one-sample t test, followed by Sidak correction of p values.”
# (§2) After stimulation, samples were washed twice with PBS for 12 min at 800×g. Samples were stained for flow cytometry as described below.
# (§3) Whole blood was incubated with lineage-specific markers for 45 min (4° C., in DPBS containing 0.02% BSA). The following anti-human antibodies were used: VioBlue-anti-CD41, PE-Cy5-anti-CD62P, Brilliant Violet 711-anti-CD11b, APC-Cy7-anti-CD16, Alexa Fluor 647-anti-CD14. After staining, red blood cells were lysed using Whole Blood Lysing Reagent Kit, according to the manufacturer's instructions. Data was collected using a flow cytometer and analysis was conducted using appropriate software.
# [2] = system: healthy volunteer peripheral blood neutrophils, monocytes and platelets; experiment: Healthy volunteer whole blood incubated with RvDn-3 DPA then PAF, flow cytometry of activation markers; assay type: cell-based, human; details: 0.1, 1, 10 nM, 15 min then PAF 30 min
# Experimental: Blood was collected from healthy volunteers and incubated with RvD2n-3 DPA, RvD5n-3 DPA (0.1 nM, 1 nM or 10 nM) or vehicle (PBS) for 15 min (37° C.) then with PAF (100 ng/ml; 30 min; 37° C.). Cell activation and leukocyte-platelet aggregates were assessed using flow cytometry. (A,B) Representative histograms depicting neutrophil (A) CD11b and (B) CD62P expression. (C,D) Cumulative neutrophil ([…]) CD11b and (D) CD62P expression. (E,F) Monocyte (E) CD11b and (F) CD62P expression. Results are mean of n=5 per time point and expressed as percentage change from PAF incubated cells. *p<0.05 compared to PAF using one-sample t test, followed by Sidak correction of p values.
# Blood was collected from healthy volunteers and incubated with RvD2n-3 DPA, RvD5n-3 DPA (0.1 nM, 1 nM or 10 nM) or vehicle (PBS) for 15 min (37° C.) then with PAF (100 ng/ml; 30 min; 37° C.). Cell activation and leukocyte-platelet aggregates were assessed using flow cytometry. (A,B) Images depicting platelet monocyte (A) and (B) platelet-neutrophil aggregates. Results are representative of n=3 distinct experiments. (C,D) Cumulative neutrophil (C) CD11b and (D) CD62P expression. (E,F) Monocyte (E) CD11b and (F) CD62P expression. Results are mean of n=5 per condition and expressed as percentage change from PAF incubated cells. *p<0.05 compared to PAF using Wilcoxon Signed Rank Test. (G) Platelet rich plasma was incubated with vehicle (PBS) or RvD5n-3 DPA 0.1-10 nM (15 min; 37° C.) and PAF (100 nM; 30 min; 37° C.). Adhesion molecule expression evaluated using flow cytometry. Results are mean±s.e.m. n=5 healthy volunteers. * p, 0.05 compared to Vehicle group using Friedman's test followed by Dunn's multiple comparisons test.
# as §2, §3
smiles,measurement,setting,value
"CC/C=C\C[C@H](O)/C=C/C=C\C/C=C\C=C\[C@@H](O)CCCCCC(=O)O [RvD5n-3 DPA, 7,17-trihydroxy-8E,10,13,15E,19Z-docosapentaenoic acid]",circulating platelet-monocyte aggregates (CD41 and CD62P expression on CD115 positive cells),Apo E^−/− mice,reduced
same,"monocyte activation, CD11b expression",Apo E^−/− mice,decrease
same,platelet-neutrophil aggregates and neutrophil activation,Apo E^−/− mice,significant reduction
same,reduction in neutrophil CD11b expression,Apo E^−/− mice,> 60%
same,expression of CD11b on monocytes,[1],decreased
same,expression of CD11b on neutrophils,[1],decreased
same,platelet-monocyte aggregates measured as CD62P and CD41 expression,[1],decreases
same,platelet-neutrophil aggregates measured as CD62P and CD41 expression,[1],decreases
same,leukocyte-platelet aggregates,[2],dose-dependent decreases
same,monocyte expression of CD11b,[2]; vs PAF alone,dose-dependent decreases
same,neutrophil CD11b expression,[2]; vs PAF alone,dose-dependent decreases
